Laboratory results as given in US8410145B2, “Insecticidal compounds” (Syngenta Crop Protection LLC, priority 2007, dated 2013).

Legend:
Type in all cases: in vivo
[1] = tested on: Spodoptera littoralis, Heliothis virescens, Plutella xylostella, Diabrotica balteata, Thrips tabaci, Tetranychus urticae; assay: Pesticidal tests, same protocols (all six pests taken together); settings: same protocols as b207 (200 ppm), under the test conditions
Text: (§1) Cotton leaf discs were placed on agar in a 24-well microtiter plate and sprayed with test solutions at an application rate of 200 ppm. After drying, the leaf discs were infested with 5 to L1 larvae. The samples were checked for mortality, feeding behavior, and growth regulation 3 days after treatment (DAT). The following compounds gave at least 80% control of Spodoptera littoralis: A1, A2, A3, A4, A6, A9, A10, A11, A12, A13, A14, A15, A16, A19, A20, A22, A23, A25, A26, A27, B1, B2, B3, B5, B6, B7, B8, B9, B11, B12, B13, B15, B16, B18, B19, B20, B21, B22, B24, B26, B27, B28, C1, C2, C3, C4, C5, C6, C7, C8, C9, C10, C12, C13, C16, C19, C20, C21, C22, C23, D1, D2, D3, D4, D5, D6, D7, D8, D9, D10, D11, D12, D13, D14, D15, D16, D17, D18, D19, D20, D21, D22, D23, D24. Heliothis virescens (Tobacco Budworm): Eggs (0-24 h old) were placed in 24-well microtiter plate on artificial diet and treated with test solutions at an application rate of 200 ppm (concentration in well 18 ppm) by pipetting. After an incubation period of 4 days, samples were checked for egg mortality, larval mortality, and growth regulation. The following compounds gave at least 80% control of Heliothis virescens: A1, A2, A3, A4, A13, A15, A17, A19, A20, A22, A23, A25, A26, A28, B1, B2, B3, B5, B6, B7, B9, B11, B13, B15, B18, B19, B20, B21, B25, B26, B27, B28, C1, C2, C3, C4, C5, C6, C7, C8, C9, C10, C12, C14, C16, C17, C19, C20, C21, C22, D1, D2, D3, D4, D5, D6, D7, D8, D9, D10, D11, D12, D13, D14, D15, D16, D17, D18, D19, D20, D21, D22, D23, E1, E2, E3, E4, E5. Plutella xylostella (Diamond Back Moth): 24-well microtiter plate (MTP) with artificial diet was treated with test solutions at an application rate of 200 ppm (concentration in well 18 ppm) by pipetting. After drying, the MTP's were infested with L2 larvae (7-12 per well). After an incubation period of 6 days, samples were checked for larval mortality and growth regulation. The following compounds gave at least 80% control of Plutella xylostella: A1, A3, A4, A10, All, A15, A19, A23, A25, B1, B2, B3, B5, B6, B7, B8, B9, B11, B13, B15, B18, B19, B20, B21, B26, B27, B28, C1, C2, C3, C4, C6, C7, C8, C9, C12, C16, C19, C20, C22, D1, D2, D3, D4, D5, D6, D7, D8, D9, D10, D12, D13, D14, D15, D16, D17, D18, D19, D20, D21, D22, D23, E1, E3, E5. Diabrotica balteata (Corn Root Worm): A 24-well microtiter plate (MTP) with artificial diet was treated with test solutions at an application rate of 200 ppm (concentration in well 18 ppm) by pipetting. After drying, the MTP's were infested with L2 larvae (6-10 per well). After an incubation period of 5 days, samples were checked for larval mortality and growth regulation. The following compounds gave at least 80% control of Diabrotica balteata: A2, A3, A4, A9, A11, A12, A13, A14, A15, A17, A19, A21, A22, A23, A24, A25, A26, B1, B2, B3, B6, B7, B8, B11, B13, B14, B15, B18, B19, B20, B21, B22, B26, B28, C1, C2, C3, C4, C5, C6, C7, C8, C9, C10, C12, C14, C15, C16, C19, C20, C21, C22, C23, C26, D1, D2, D4, D5, D6, D7, D8, D9, D10, D12, D14, D15, D16, D17, D18, D19, D20, D21, D22, D23, E2, E3, E5. Thrips tabaci (Onion Thrips): Sunflower leaf discs were placed on agar in a 24-well microtiter plate and sprayed with test solutions at an application rate of 200 ppm. After drying, the leaf discs were infested with an […] population of mixed ages. After an incubation period of 7 days, samples were checked for mortality. The following compounds gave at least 80% control of Thrips tabaci: B1, B7, B11, B15, B18, B19, B28, D1, D2, D3, D4, D5, D6, D7, D8, D9, D10, D12, D16, D18, D19, D20, D21, D23. Tetranychus urticae (Two-Spotted Spider Mite): Bean leaf discs on agar in 24-well microtiter plates were sprayed with test solutions at an application rate of 200 ppm. After drying, the leaf discs are infested with mite populations of mixed ages. 8 days later, discs are checked for egg mortality, larval mortality, and adult mortality. […]

[2] = tested on: Spodoptera littoralis (Egyptian Cotton Leafworm); assay: Spodoptera littoralis cotton leaf disc spray test; settings: foliar, 72 h, 200 ppm spray on cotton leaf discs, L1 larvae, mortality, feeding behavior, growth regulation 3 DAT
Text: as §1

[3] = tested on: Diabrotica balteata (Corn Root Worm); assay: Diabrotica balteata larvae test on artificial diet; settings: 120 h, 200 ppm (concentration in well 18 ppm), L2 larvae, larval mortality and growth regulation after 5 days
Text: as §1

[4] = tested on: Plutella xylostella (Diamond Back Moth); assay: Plutella xylostella larvae test on artificial diet; settings: 144 h, 200 ppm (concentration in well 18 ppm), L2 larvae, larval mortality and growth regulation after 6 days
Text: as §1

[5] = tested on: Heliothis virescens (Tobacco Budworm); assay: Heliothis virescens egg test on artificial diet; settings: 96 h, 200 ppm (concentration in well 18 ppm), eggs 0-24 h old on artificial diet, egg mortality, larval mortality, growth regulation after 4 days
Text: as §1

| Compound | effect on mortality, feeding behavior, or growth regulation [1] | pest or weed control at 200 ppm [2] [%] | pest or weed control at 200 ppm [3] [%] | pest or weed control at 200 ppm [4] [%] | pest or weed control at 200 ppm [5] [%] |
| --- | --- | --- | --- | --- | --- |
| O=C(Nc1cccc(C2=NOC(c3cc(Cl)cc(Cl)c3)(C(F)(F)F)C2)c1)c1ccc(F)c(C(F)(F)F)c1 (racemic) [A18] | little or no effect | – | – | – | – |
| O=C(Nc1cccc(C2=NOC(c3cc(Cl)cc(Cl)c3)(C(F)(F)F)C2)c1F)c1cc(C(F)(F)F)ccc1F (racemic) [B23] | little or no effect | – | – | – | – |
| O=C(Nc1cc(C2=NOC(c3cc(Cl)cc(Cl)c3)(C(F)(F)F)C2)ccc1F)c1cc(Cl)ccc1F (racemic) [C11] | little or no effect | – | – | – | – |
| O=C(Nc1cc(C2=NOC(c3cc(Cl)cc(Cl)c3)(C(F)(F)F)C2)ccc1F)c1cc(C(F)(F)F)ccc1F (racemic) [C25] | little or no effect | – | – | – | – |
| O=C(Cc1ccc(Cl)cc1)Nc1cccc(C2=NOC(c3cc(Cl)cc(Cl)c3)(C(F)(F)F)C2)c1 (stereo not shown) [A5] | little or no effect | – | – | – | – |
| CCCCC(=O)Nc1cccc(C2=NOC(c3cc(Cl)cc(Cl)c3)(C(F)(F)F)C2)c1 (stereo not shown) [A6, pentanoic acid {3-[5-(3,5-dichloro-phenyl)-5-trifluoromethyl-4,5-dihydro-isoxazol-3-yl]-phenyl}-amide] | – | ≥ 80 | – | – | – |
| COCC(=O)Nc1cccc(C2=NOC(c3cc(Cl)cc(Cl)c3)(C(F)(F)F)C2)c1 (stereo not shown) [A7] | little or no effect | – | – | – | – |
| Cc1ccccc1C(=O)Nc1cccc(C2=NOC(c3cc(Cl)cc(Cl)c3)(C(F)(F)F)C2)c1F (stereo not shown) [B2] | – | ≥ 80 | ≥ 80 | ≥ 80 | ≥ 80 |
| O=C(Nc1cccc(C2=NOC(c3cc(Cl)cc(Cl)c3)(C(F)(F)F)C2)c1F)c1ccccc1Cl (stereo not shown) [B3] | – | ≥ 80 | ≥ 80 | ≥ 80 | ≥ 80 |
| Cc1ccc(C(=O)Nc2cccc(C3=NOC(c4cc(Cl)cc(Cl)c4)(C(F)(F)F)C3)c2F)cc1 (stereo not shown) [B6] | – | ≥ 80 | ≥ 80 | ≥ 80 | ≥ 80 |
| O=C(Nc1cccc(C2=NOC(c3cc(Cl)cc(Cl)c3)(C(F)(F)F)C2)c1F)c1ccccc1 (stereo not shown) [B16] | – | ≥ 80 | – | – | – |
| O=C(Nc1cccc(C2=NOC(c3cc(Cl)cc(Cl)c3)(C(F)(F)F)C2)c1F)c1cccc(F)c1F (stereo not shown) [B21] | – | ≥ 80 | ≥ 80 | ≥ 80 | ≥ 80 |
| O=C(Nc1cccc(C2=NOC(c3cc(Cl)cc(Cl)c3)(C(F)(F)F)C2)c1F)c1ccc(F)cc1F (stereo not shown) [B22] | – | ≥ 80 | ≥ 80 | – | – |
| O=C(Nc1cccc(C2=NOC(c3cc(Cl)cc(Cl)c3)(C(F)(F)F)C2)c1F)c1ccccn1 (stereo not shown) [B25] | – | – | – | – | ≥ 80 |
| O=C(Nc1cccc(C2=NOC(c3cc(Cl)cc(Cl)c3)(C(F)(F)F)C2)c1F)c1cccnc1 (stereo not shown) [B26] | – | ≥ 80 | ≥ 80 | ≥ 80 | ≥ 80 |
| CSc1ccccc1C(=O)Nc1cccc(C2=NOC(c3cc(Cl)cc(Cl)c3)(C(F)(F)F)C2)c1F (stereo not shown) [B27] | – | ≥ 80 | – | ≥ 80 | ≥ 80 |
| N#Cc1ccc(C(=O)Nc2cc(C3=NOC(c4cc(Cl)cc(Cl)c4)(C(F)(F)F)C3)ccc2F)cc1 (stereo not shown) [C1] | – | ≥ 80 | ≥ 80 | ≥ 80 | ≥ 80 |
| O=C(Nc1cc(C2=NOC(c3cc(Cl)cc(Cl)c3)(C(F)(F)F)C2)ccc1F)c1ccccc1F (stereo not shown) [C5] | – | ≥ 80 | ≥ 80 | – | ≥ 80 |
| Cc1ccccc1C(=O)Nc1cc(C2=NOC(c3cc(Cl)cc(Cl)c3)(C(F)(F)F)C2)ccc1F (stereo not shown) [C6] | – | ≥ 80 | ≥ 80 | ≥ 80 | ≥ 80 |
| O=C(Nc1cc(C2=NOC(c3cc(Cl)cc(Cl)c3)(C(F)(F)F)C2)ccc1F)c1ccccc1Cl (stereo not shown) [C7] | – | ≥ 80 | ≥ 80 | ≥ 80 | ≥ 80 |
| O=C(Nc1cc(C2=NOC(c3cc(Cl)cc(Cl)c3)(C(F)(F)F)C2)ccc1F)c1ccc([N+](=O)[O-])cc1 (stereo not shown) [C8] | – | ≥ 80 | ≥ 80 | ≥ 80 | ≥ 80 |
| O=C(Nc1cc(C2=NOC(c3cc(Cl)cc(Cl)c3)(C(F)(F)F)C2)ccc1F)c1ccco1 (stereo not shown) [C13] | – | ≥ 80 | – | – | – |
| O=C(Nc1cc(C2=NOC(c3cc(Cl)cc(Cl)c3)(C(F)(F)F)C2)ccc1F)c1ccccc1 (stereo not shown) [C19] | – | ≥ 80 | ≥ 80 | ≥ 80 | ≥ 80 |
| O=C(Nc1cc(C2=NOC(c3cc(Cl)cc(Cl)c3)(C(F)(F)F)C2)ccc1F)c1ccc(F)cc1 (stereo not shown) [C20] | – | ≥ 80 | ≥ 80 | ≥ 80 | ≥ 80 |
| O=C(Nc1cc(C2=NOC(c3cc(Cl)cc(Cl)c3)(C(F)(F)F)C2)ccc1F)c1cccc(F)c1F (stereo not shown) [C23] | – | ≥ 80 | ≥ 80 | – | – |
| N#Cc1ccc(C2=NOC(c3cc(Cl)cc(Cl)c3)(C(F)(F)F)C2)cc1NC(=O)c1ccco1 (stereo not shown) [D13] | – | ≥ 80 | – | ≥ 80 | ≥ 80 |
| N#Cc1ccc(C2=NOC(c3cc(Cl)cc(Cl)c3)(C(F)(F)F)C2)cc1NC(=O)c1cccc(F)c1F (stereo not shown) [D22] | – | ≥ 80 | ≥ 80 | ≥ 80 | ≥ 80 |
| Cc1cc(NC(=O)c2ccc(C#N)cc2)cc(C2=NOC(c3cc(Cl)cc(Cl)c3)(C(F)(F)F)C2)c1 (stereo not shown) [E1] | – | – | – | ≥ 80 | ≥ 80 |
